# Results from patent publication US11185076B2 (priority 2017, dated 2021).
# Like-named read-outs stand apart in the source and are kept apart here.
# Assays:
# [1] = test system: cucumber mosaic virus (CMV); conditions: for Number of CMV Infected Plants: Acute wilt / Number of CMV Infected Plants: Mosaic / Number of CMV Infected Plants: No Infection: 5 plants; for Number of CMV Infected Plants: Acute wilt / Number of CMV Infected Plants: Mosaic / Number of CMV Infected Plants: No Infection / Control value / Disease Severity index: drench 3 days before inoculation, g ai/10a: (a) 90, (b) 150, dinotefuran 120, thiamethoxam 60, (h) 250, mixtures 90 + 120 and 150 + 60; for phytotoxicity: cucumber (cultivar: Sagami-hanjiro); for control effect on cucumber mosaic virus (CMV) (in words): treatment on 3 day before inoculation
# [2] = test system: Chinese cabbage soft rot bacteria (Erwinia carotovora subsp. carotovora); assay: Control test on Chinese cabbage soft rot (soil incorporation test); type: in vivo; conditions: for phytotoxicity: Chinese cabbage plant (cultivar: Muso); for control effect on the Chinese cabbage soft rot (in words): whole soil incorporation at the time of planting
# Excerpt: Granules containing 3% of tolprocarb (a) (trade name; Sanblas (registered trademark) granules (manufactured by Mitsui Chemical Agro Co., Ltd.)), granules containing 5% of pyroquilon (b) (trade name; Coratop (registered trademark) granules (manufactured by Mitsui Chemical Agro Co., Ltd.)), granules containing 1.5% of simeconazole (fungicidal component) (trade name; Mongalite (registered trademark) granules (manufactured by Mitsui Chemical Agro Co., Ltd.)) and flowable containing 20% of penthiopyrad (fungicidal component) were respectively incorporated or were incorporated in combination into a pot soil in a predetermined amount. Then, the Chinese cabbage was planted in the pot soil. At 14 days after chemical agent treatment, the Chinese cabbage soft rot was inoculated. […] Thereafter, the inoculated plantes were put in a 25° C. greenhouse to promote infection for 2 days, and the control effect was examined. The infection was examined by the degree of infection, and the disease severity index was calculated based on the degree of infection. The control value was calculated from the disease severity index.
# Severity index=((the number of leaves of infection index 0×0)+(the number of leaves of infection index 1×1)+(the number of leaves of infection index 2×2)+(the number of leaves of infection index 3×3)/(the number of leaves examined×3)×100
# (§1) The synergistic effect was calculated from the following Colby's equation. Synergistic effect (expected value)=(control value of compound A+control value of compound B)−(control value of compound A×control value of compound B)/100
# (§2) When the control value exceeded the expected value in the case of mixing the compounds and applying the mixed product, it was determined that there was a synergistic effect.
# [3] = test system: tomato yellow leaf curl disease (TYLCV); assay: Control test on tomato yellow leaf curl disease (TYLCV) (soil drench test); type: in vivo, tomato yellow leaf curl virus; conditions: for phytotoxicity: tomato (cultivar: Sekai-ichi); for control effect on tomato yellow leaf curl disease (TYLCV) (in words): treatment on 7 day before inoculation
# Description: Granules containing 3% of tolprocarb (a) (trade name; Sanblas (registered trademark) granules (manufactured by Mitsui Chemical Agro Co., Ltd.)), granules containing 5% of pyroquilon (b) (trade name; Coratop (registered trademark) granules (manufactured by Syngenta Japan Ltd.)) and granules containing 1% of dinotefran (trade name; Starkle (registered trademark) granules (manufactured by Mitsui Chemicals Agro Co., Ltd.)) were respectively treated or were treated in combination to plant foot of tomato in a predetermined amount. Seven days after chemical agent treatment, the plants were inoculated by sucking of one adult of TYLCV-carrying tobacco whitefly biotype Q per plant for 3 days. Thereafter, the inoculated plants were put in the greenhouse to promote infection, and the control effect was examined after the infection. The infection was examined by the degree of infection, and the disease severity index was calculated based on the degree of infection. The control value was calculated from the disease severity index.
# 1: observation of initial infection (delayed infection)
# 2: observation of infection Severity index=((the number of plants of infection index 0×0)+(the number of plants of infection index 1×1)+(the number of plants of infection index 2×2)/(the number of plants examined×2))×100
# as §1, §2
# Rice Streak Virus (RSV) = assay: Control test on rice streak virus (RSV) (field trial of nursery box application); type: in vivo, rice stripe virus; conditions: for phytotoxicity: rice (cultivar: Hinohikari)
# Description: Rice seedlings (cultivar: Hinohikari) were grown in a greenhouse according to an ordinary procedure and transplanted to an open paddy field. Granules containing 4% of tolprocarb (a) and granules containing 6% of dinotefuran (insecticidal ingredient) formulated according to Formulation Example 2 were respectively treated or were treated in combination in 50 g per box in a nursery box on the day of transplantation. 35 days after transplantation, larvae of RSV-carrying small brown planthopper were released for one week to inoculate rice plants by sucking. At 79 days and 99 days after transplantation, the presence or absence of the unshooting of head was examined.
# [4] = test system: cucumber mosaic virus (CMV); conditions: for Control value / Disease Severity index / Number of CMV Infected Leaves: Acute wilt / Number of CMV Infected Leaves: Mosaic / Number of CMV Infected Leaves: No Infection: drench 1 day before inoculation; for Number of CMV Infected Leaves: Acute wilt / Number of CMV Infected Leaves: Mosaic / Number of CMV Infected Leaves: No Infection: 3 checked; for phytotoxicity: cucumber (cultivar: Sagami-hanjiro)
# [5] = test system: tomato powdery mildew (Oidium neolycopersici); assay: Control test on tomato powdery mildew (soil incorporation test); type: in vivo
# Description: A tomato powdery mildew control test was performed in a greenhouse. A plastic pots having a diameter of 20 cm were used for the test. As test chemical agents, granules containing 3% of tolprocarb (compound (a)) (trade name; Sanblas (registered trademark) granules (Mitsui Chemical Agro Inc.)) commercially available and granules containing 5% of pyroquilon (compound (b)) (trade name: Coratop (registered trademark) granules (manufactured by Syngenta Japan Co., Ltd.)) were mixed to soil on the entire surface of the pot in an amount equivalent to 3 kg/10a. Also, the simplified emulsifiable concentrate E(c) containing the compound (c) was suspended in the distilled water, and was irrigated onto the entire surface of the pot to be incorporated. As the comparative example, granules (trade name: Oryzemate (registered trademark) granules (Meiji Seika Pharma Co., Ltd.)) containing 8% of probenazole (comparative compound (h)) was mixed to soil on the entire surface of the pot in an amount equivalent to 3 kg/10a. Tomato (cultivar: Ohgata-fukuju) grown up to 4-leaf stage of true leaf was planted in a plastic pots having a diameter of 20 cm and were treated with chemical agents. Plants were grown in a glass greenhouse and naturally occurring tomato powdery mildew (Oidium neolycopersici) was examined one month after chemical agent treatment. In the examination, an infection index of six leaves per pot was examined to calculate disease severity index. The control value was calculated from the disease severity index.
# The criteria for the degree of infection are as follows.
# 1: lesion area rate of less than 5%
# 2: lesion area rate from 5% to 25%
# 3: lesion area rate from 25% to 50%
# The severity index was calculated from the following equation. Severity index=((the number of compound leaves of infection index 0×0)+(the number of compound leaves of infection index 1×1)+(the number of compound leaves of infection index 2×2)+(the number of compound leaves of infection index 3×3)+(the number of compound leaves of infection index 4×4/(the number of compound leaves examined×4))×100
# [6] = Total of plots, g ai/10a: (a) 90, (b) 150, (c) 90, (h) 240
# [7] = Total, one month after treatment, g ai/10a: (a) 90, (b) 150, (c) 90, (h) 240
# [8] = plot I, g ai/10a: (a) 90, (b) 150, (c) 90, (h) 240
# [9] = plot II, g ai/10a: (a) 90, (b) 150, (c) 90, (h) 240
# [10] = plot III, g ai/10a: (a) 90, (b) 150, (c) 90, (h) 240
compound,measurement,setting,value
"Cc1ccc(C(=O)NC[C@@H](NC(=O)OCC(F)(F)F)C(C)C)cc1 [Tolprocarb (a), tolprocarb]",Number of CMV Infected Plants: Acute wilt,[1],0
same,Number of CMV Infected Plants: Mosaic,[1],3
same,Number of CMV Infected Plants: No Infection,[1],2
same,phytotoxicity,[1],not observed
same,Control value,[1],66.7
same,Disease Severity index,[1],30.0
same,control effect on cucumber mosaic virus (CMV) (in words),[1],excellent control effect
same,phytotoxicity,[2],not observed
same,control effect on the Chinese cabbage soft rot (in words),[2],excellent control effect
same,phytotoxicity,[3],not observed
same,control effect on tomato yellow leaf curl disease (TYLCV) (in words),[3],excellent control effect
same,phytotoxicity,Rice Streak Virus (RSV),not observed
same,Control value,[4]; 22.5 g ai/10a,66.7
same,Disease Severity index,[4]; 22.5 g ai/10a,33.3
same,Number of CMV Infected Leaves: Acute wilt,[4]; 22.5 g ai/10a,1
same,Number of CMV Infected Leaves: Mosaic,[4]; 22.5 g ai/10a,0
same,Number of CMV Infected Leaves: No Infection,[4]; 22.5 g ai/10a,2
same,Control value,[4]; 45 g ai/10a,16.7
same,Disease Severity index,[4]; 45 g ai/10a,83.3
same,Number of CMV Infected Leaves: Acute wilt,[4]; 45 g ai/10a,2
same,Number of CMV Infected Leaves: Mosaic,[4]; 45 g ai/10a,1
same,Number of CMV Infected Leaves: No Infection,[4]; 45 g ai/10a,0
same,Control value,[4]; 90 g ai/10a,50.0
same,Disease Severity index,[4]; 90 g ai/10a,50.0
same,Number of CMV Infected Leaves: Acute wilt,[4]; 90 g ai/10a,1
same,Number of CMV Infected Leaves: Mosaic,[4]; 90 g ai/10a,1
same,Number of CMV Infected Leaves: No Infection,[4]; 90 g ai/10a,1
same,phytotoxicity,[4],not observed
same,control effect on cucumber mosaic virus (CMV) (in words),[4]; treatment on 1 day before inoculation,excellent control effect
"C=CCOC1=NS(=O)(=O)c2ccccc21 [Probenazole (h), probenazole]",Number of CMV Infected Plants: Acute wilt,[1],0
same,Number of CMV Infected Plants: Mosaic,[1],2
same,Number of CMV Infected Plants: No Infection,[1],3
same,phytotoxicity,[1],not observed
same,Control value,[1],77.8
same,Disease Severity index,[1],20.0
"Cc1cccc2sc3nncn3c12 [Tricyclazole (c), tricyclazole]",Infection index 0 (number of leaves),[5]; [6],8
same,Infection index 1 (number of leaves),[5]; [6],8
same,Infection index 2 (number of leaves),[5]; [6],2
same,Infection index 3 (number of leaves),[5]; [6],0
same,Infection index 4 (number of leaves),[5]; [6],0
same,Control value,[5]; [7],66.7
same,Disease Severity index,[5]; [7],16.7
same,Infection index 0 (number of leaves),[5]; [8],0
same,Infection index 1 (number of leaves),[5]; [8],5
same,Infection index 2 (number of leaves),[5]; [8],1
same,Infection index 3 (number of leaves),[5]; [8],0
same,Infection index 4 (number of leaves),[5]; [8],0
same,Infection index 0 (number of leaves),[5]; [9],5
same,Infection index 1 (number of leaves),[5]; [9],1
same,Infection index 2 (number of leaves),[5]; [9],0
same,Infection index 3 (number of leaves),[5]; [9],0
same,Infection index 4 (number of leaves),[5]; [9],0
same,Infection index 0 (number of leaves),[5]; [10],3
same,Infection index 1 (number of leaves),[5]; [10],2
same,Infection index 2 (number of leaves),[5]; [10],1
same,Infection index 3 (number of leaves),[5]; [10],0
same,Infection index 4 (number of leaves),[5]; [10],0
same,phytotoxicity,"[5]; tomato (cultivar: Ohgata-fukuju), g ai/10a: (a) 90, (b) 150, (c) 90, (h) 240",not observed
same,control effect on tomato powdery mildew (in words),[5]; whole soil incorporation,excellent control effect
"CC(C)CC(C)c1sccc1NC(=O)c1cn(C)nc1C(F)(F)F (stereo not drawn) [penthiopyrad, reference compound]",phytotoxicity,[2],not observed
"CN/C(=N/CC1CCOC1)N[N+](=O)[O-] (stereo not drawn) [Dinotefuran, dinotefuran]",Number of CMV Infected Plants: Acute wilt,[1],2
same,Number of CMV Infected Plants: Mosaic,[1],2
same,Number of CMV Infected Plants: No Infection,[1],1
same,phytotoxicity,[1],not observed
same,Control value,[1],33.3
same,Disease Severity index,[1],60.0
same,phytotoxicity,[3],not observed
same,control effect on the rice stripe blight (RSV) (in words),Rice Streak Virus (RSV); nursery box application,effect of delaying the occurrence of the unshooting of head
same,phytotoxicity,Rice Streak Virus (RSV),not observed
"CSC(=O)c1cccc2nnsc12 [Acibenzolar-S-methyl (i), acibenzolar S methyl, reference compound]",Control value,[4]; 250 g ai/10a,50.0
same,Disease Severity index,[4]; 250 g ai/10a,50.0
same,Number of CMV Infected Leaves: Acute wilt,[4]; 250 g ai/10a,0
same,Number of CMV Infected Leaves: Mosaic,[4]; 250 g ai/10a,3
same,Number of CMV Infected Leaves: No Infection,[4]; 250 g ai/10a,0
same,phytotoxicity,[4],not observed
"CN1COCN(Cc2cnc(Cl)s2)/C1=N\[N+](=O)[O-] [Thiamethoxam, thiamethoxam]",Number of CMV Infected Plants: Acute wilt,[1],1
same,Number of CMV Infected Plants: Mosaic,[1],3
same,Number of CMV Infected Plants: No Infection,[1],1
same,phytotoxicity,[1],not observed
same,Control value,[1],44.4
same,Disease Severity index,[1],50.0
"C[Si](C)(C)CC(O)(Cn1cncn1)c1ccc(F)cc1 (stereo not drawn) [simeconazole, reference compound]",phytotoxicity,[2],not observed
"O=C1CCc2cccc3c2N1CC3 [Pyroquilon (b), pyroquilon]",Number of CMV Infected Plants: Acute wilt,[1],0
same,Number of CMV Infected Plants: Mosaic,[1],4
same,Number of CMV Infected Plants: No Infection,[1],1
same,phytotoxicity,[1],not observed
same,Control value,[1],55.6
same,Disease Severity index,[1],40.0
same,control effect on cucumber mosaic virus (CMV) (in words),[1],excellent control effect
same,phytotoxicity,[2],not observed
same,control effect on the Chinese cabbage soft rot (in words),[2],excellent control effect
same,phytotoxicity,[3],not observed
same,control effect on tomato yellow leaf curl disease (TYLCV) (in words),[3],excellent control effect
